What was measured:
[1] = test system: nuclear localized EGFR; test: Subcellular protein fractionation for EGFR nuclear localization; assay type: cell-based, human; conditions: MDA-MB-468 serum starved, EGF and peptide for 2 hours
Method: (§1) Cells were then fractionated and verified by HSP90 cytosolic protein, Bap31 membrane protein, or HDAC nuclear protein. B. MDA-MB-468 cells were serum starved overnight then stimulated with EGF on ice for 10 minutes. […] B. MDA-MB-468 cells were serum starved overnight then incubated on ice with 10 ng/mL EGF for 10 minutes. […] C. […] After the second week, the number of secondary mammospheres were counted.
MDA-MB-468 were serum starved overnight then incubated with EGF and peptide for 2 hours to allow for nuclear localization of EGFR. Subcellular protein fractionation was then performed to isolate cytosolic, membrane, and nuclear protein fractions (FIG. 5A).

[2] = test system: MDA-MB-468 cells; assay type: cell-based, human
Method: A. Peptide sequence alignment of modified and stabilized peptides (−) indicates conserved residues, (/) indicates a deleted residue. Modified residues used for staples are (S)-2-(((9H-flouren-9-yl) methoxy) caronylamino)-2-methyl-hept-6-enoic acid (5) and (R)-2-(((9H-flouren-9-yl) methoxy) caronylamino)-2-methyl-dec-9-enoic acid (8). PTD4=Protein Transduction Domain. Ac=acetylation of 5′ end and NH2=amidation of 3′ end. B. MDA-MB-468 cells were treated with 10 μM of the indicated peptide for 3 days. Cell viability was measured using an MTT assay. Vehicle control represents 100%. C. A predicted peptide structure of SNX1.3 was generated using SWISSMODEL with negative (blue) and positive (red) residues highlighted.
(§2) B. MDA-MD-468 cells were transduced with an IPTG inducible shEGFR targeted against the 3′ UTR of EGFR. These cells were incubated with IPTG for the indicated number of days and lysates were generated to confirm knock down of EGFR. C. In tandem with B., cells were plated and incubated +/−IPTG for 2 days prior to drug treatment. […] After 5 days of IPTG and 3 days of peptide treatment viability was measured using an MTT assay.
Predicted peptide structure including negatively (blue) and positively (red) charged residues was used to guide the modifications (FIG. 2C).

[3] = test system: MDA-MB-468 cells with reduced EGFR; test: MTT viability in MDA-MB-468 cells with shRNA knock down of EGFR; assay type: cell-based, human; conditions: shRNA to the 3′UTR of EGFR, 5 days IPTG, 3 days peptide, MTT assay
Method: as §2
No effect on CHO cells that lack EGFR expression was observed.

[4] = test system: H1975 cell line with an EGFR driver mutation in the kinase domain (T790M); test: MTT cell viability assay in H1975 cells; assay type: cell-based; conditions: 3 days
[5] = test system: BT20 triple negative breast cancer cells; test: BT20 mammosphere assay; assay type: cell-based, human
Method: as §1

[6] = test system: MDA-MB-468 cells; test: Bulk RNAseq of treated MDA-MB-468 cells; assay type: cell-based, human; conditions: MDA-MB-468, bulk RNAseq in triplicate
Method: C. WAP-TGFα tumors treated with either SNX1.3 or cPTD4 were analyzed for NK cells using an anti-NKp46 antibody. Inset is 20×.
A-C. […] A. A gene ontology enrichment bubble plot was produced, and the top 30 enriched GO terms are shown. Color indicates −1*log 10(FDR) for significance of overlap (the higher the more significant). X axis=log odds ratio for genes annotated to that GO term. […] C. RT-PCR analysis of IL1RL1.
In addition to bioinformatics identification of CTLs in these tumors, similar analysis implicated recruitment of NK cells as well (FIG. 9). As a part of the innate immune system, NK cells should only be recruited if a change has occurred to display NK-activating antigens. While there are many such antigens expressed under a variety of immune modulation conditions, some are highly associated with activation of NK cells against cancers, such as ULBP2/3 or MICA/MICB32.
A significant impact on the immune response, especially IL-1 dependent pathways was identified (FIG. 12A). IL-1-specific genes were searched and an upregulation in several IL1R genes, including IL1R2, IL1RL1, IL1RL2, IL1RAP and IL1RN (FIG. 12B) were found. […] It is hypothesized that the transient and targeted activation of the IL1/TLR pathway in the tumors may allow for the immune system to become active where previously these tumors were immune suppressive. […]

[7] = test system: BT20 cells; assay type: cell-based, human
Method: as §2
To investigate rt-EGFR, the role of the Sorting Nexins to regulate EGFR trafficking to the lysosome for degradation was investigated. To determine if SNX1 domains could be therapeutically mimicked, three SNX1-based peptides were synthesized, each of which was generated in tandem with a Cell Penetrating Peptide domain (PTD-4) to allow for intracellular penetration^19 (SNX1.1, 1.2 and 1.3, FIG. 2A). The ability of each peptide to reduce cell survival in the triple negative breast cancer cell line BT20 was evaluated.
EGFR activity is known to promote the activity of other RTKs, including those in the EGFR family (HER2, HER3 and HER4) and the c-Met receptor (Puri and Salgia 2008; Linklater et al. 2016). Therefore, the ability of SNX1.3 to inhibit 2D migration was next evaluated, both in response to EGF as well as other migration-inducing ligands. […] Cells were plated on plastic and allowed to migrate into an artificial wound over 12 hours. […] To determine if this inhibitory effect was restricted to EGF-induced migration, the ability of SNX1.3 to impact neuregulin (NRG1) was also tested and hepatic growth factor (HGF)-induced migration. NRG is the ligand for HER3 and HER4, and HGF the ligand for the c-Met receptor, both of which are receptor tyrosine kinases. In addition, soluble hyaluronic acid (HA)-induced migration, the ligand for CD44, was also tested [a non-kinase membrane receptor that induces migration (Louderbough, Lopez, and Schroeder 2010)]. […] Note that all receptors undergo endocytosis, with the RTKs primarily undergoing clathrin-dependent endocytosis, while CD44 endocytosis is clathrin-independent (Dutta and Donaldson 2015).

[8] = Toxicity evaluation in C57Bl/6J female mice; assay type: in vivo, mouse; conditions: 5.0 or 10.0 μg/g body weight, 3×/week IV, 2 weeks; cSNX1.3 versus cPTD4; data not shown
Method: Mice are continually bred to activate the pregnancy-dependent WAP promoter, which drives expression of the EGFR ligand Transforming Growth Factor alpha (TGFα) strictly to the mouse mammary glands. This model stochastically forms unifocal mammary adenocarcinomas through a process that begins with mammary hyperplasia, followed by tumor formation over approximately 8 months. […] No difference in weight or behavior or grooming was observed. Therefore 10 μg/g body weight was used for subsequent studies.

## CC[C@H](C)[C@H](NC(=O)[C@@H](NC(=O)[C@H](Cc1c[nH]cn1)NC(=O)[C@H](CC(N)=O)NC(=O)[C@H](CCCCN)NC(=O)[C@H](C)NC(=O)[C@H](CCCNC(=N)N)NC(=O)[C@H](C)NC(=O)[C@H](CCC(N)=O)NC(=O)[C@H](CCCNC(=N)N)NC(=O)[C@H](C)NC(=O)[C@H](C)NC(=O)[C@H](C)NC(=O)[C@H](CCCNC(=N)N)NC(=O)[C@H](C)NC(=O)[C@H](Cc1ccc(O)cc1)NC(C)=O)C(C)C)C(=O)N[C@@H](CCCCN)C(=O)N[C@@H](Cc1ccc(O)cc1)C(=O)N[C@@H](CC(C)C)C(=O)N[C@@H](CCC(=O)O)C(=O)N[C@H](C(=O)N[C@@H](CC(C)C)C(=O)N[C@@H](CC(C)C)C(=O)N[C@@H](Cc1ccc(O)cc1)C(=O)N[C@@H](CO)C(=O)N[C@@H](CCC(N)=O)C(=O)N[C@@H](CCC(N)=O)C(=O)N[C@@H](CCC(N)=O)C(=O)N[C@@H](CC(C)C)C(=O)N[C@@H](C)C(=O)N[C@@H](CCCCN)C(=O)N[C@@H](Cc1ccc(O)cc1)C(=O)N[C@@H](Cc1c[nH]c2ccccc12)C(=O)N[C@@H](CCC(=O)O)C(=O)N[C@@H](C)C(=O)N[C@@H](Cc1ccccc1)C(=O)N[C@@H](CC(C)C)C(N)=O)[C@@H](C)O [cSNX1.3]
[1]
  nuclear localized EGFR: loss of nuclear localized EGFR
[2]; 9 h
  IC50: 7.5 µM
[2]; MDA-MB-468, 10 μM peptide for 3 days, MTT assay
  efficacy after C- and N-terminal peptide end-capping: increased efficacy
[2]; MDA-MB-468, 3 days, MTT assay
  inhibition of cell survival, compared with Sapitinib: more effective than Sapitinib
[3]
  efficacy in cells with reduced EGFR: lacked significant efficacy
[4]
  effect on cell viability: no effect
[5]; BT20, cSNX1.3 in first week, cPTD4 or vehicle in second week
  secondary sphere formation after treatment in the first week only: significant reduction of sphere formation
[5]; BT20, first week of treatment
  mammosphere formation: no mammospheres were formed
[5]; BT20, re-plated, treatment on the second week
  secondary mammosphere formation, treated in the second week: no mammosphere formation
[6]
  NK activating antigens ULBP2, ULBP3, MICA and MICB: increased
  PDL1 expression: did not alter
[7]
  IC50: 25 µM
[7]; BT20, 3 days, MTT assay
  inhibition of cell survival, compared with Sapitinib: more effective than Sapitinib
[8]
  difference in weight or behavior or grooming: No difference
